Laboratory results reported in patent publication US20220340899A1, “STEREOSELECTIVE PH RESPONSIVE PEPTIDE DENDRIMERS FOR NUCLEIC ACID TRANSFECTION” (UNIVERSITÄT BERN, priority 2019, published 2022).

Legend:
NIH 3T3 = test: Plasmid DNA (CRISPR-Cas9-GFP) transfection, GFP expression by FACS; type: cell-based
Description: (§1) Cell lines, transfection reagents and plasmids: The cells were maintained in DMEM medium with 10% (v/v) FCS and 1% (v/v) P/S in a humidified atmosphere in 5% CO2 and 37° C. The plasmid CRISPR-Cas9-GFP was purchased from DNA2.0. Lipofectamine 2000 (L2000) was obtained from […]. L2000 was used as positive control transfection agents, in accordance with the manufacturer's instructions.
(§2) Transfection procedure: 24 hours before transfection, cells were seeded in 96 well plates in order to reach 70-90% confluence. Peptide dendrimers/DNA complexes were formed by mixing the dendrimers (6.25 μL, from 5 μg to 6.4 μg on N/P ratio 5) with plasmid DNA (250 ng; 6.25 μL). These mixtures were incubated in OptiMEM for 30 min at 25° C. Transfection control complexes, L2000, was mixed with plasmid DNA (250 ng; 6.25 μL) at the respective manufacturers' recommended concentrations. Before overlaying the DNA complexes on the cells, OptiMEM was added to dilute the complexes, so that each complex contained 250 ng DNA in a total volume of 100 μL in one well of a 96 well plate. After removing complete media from the cells, the complexes were added to the plates. The plates were incubated for 4 hours at 37° C. Then, the transfection solutions were replaced by full growth media for 40 hours before transfection efficiency was assayed.
(§3) Transgene expression assay: The cells were washed twice with PBS and incubated with trypsin for 20 min at 37° C. Then 100 μL of PBS were added to each well and the transfection efficiency was assessed by FACS analysis (BD LSRFortessa).
(§4) For example, a study for transfecting plasmid DNA using similar peptide dendrimers and a large plasmid DNA coding for CRISPR-Cas9-GFP (−9 Kbp). The Cas9-2A-GFP vector allows the co-expression of Cas9 and GFP from the same mRNA. The self-cleavable peptide 2A allows the release of GFP reporter in the cytoplasm after the expression, so that the transfection efficiency was determined by tracking the expression of GFP (green fluorescent protein) in various cell lines upon exposure to the corresponding plasmid complexes with dendrimers at N/P=5. We tracked transfection efficiency by fluorescence activated cell sorting, and counted the percentage of successfully transfected cells, which appeared fluorescent. […] Most remarkably, dendrimer mediated transfection is found to be far more efficient than with the reference reagent L2000. […] However, cysteine containing monomers also transfected in the presence of reducing agents preventing dimer formation, showing that disulfide bridge formation is not required for DNA transfection.

DU 145 = test: as above; type: cell-based
Description: as §1, §2, §3, §4

[1] = Critical micellar concentration / aggregation by Nile red assay; type: physicochemical
Description: Critical Micellar Concentration (CMC): Nile red is known to have a higher fluorescence when being surrounded by a hydrophobic environment and this experiment is derived from known procedure but applied to 96-well plates. To see if the CMC determination is working in our hands with our assay, we first performed it with dodecylphosphocholine and found a value of 0.3125 mg/mL, corresponding to 0.9 mM which is in accordance with values between 0.9 and 1.1 mM from literature (data not shown). Briefly, Nile red (Sigma aldrich, Buchs, CH) was diluted in methanol at a concentration of 2 μM and 5 μL was added to each well of a TPP 96-well plate (Faust Laborbedarf AG, Schaffhausen) and dry under the fumehood air flow at room temperature for 1 h. Serial dilution of the peptide dendrimers, L2000 and dodecylphosphocholine (Avanti polar lipids, Alablaster, USA) were performed in 10 mM phosphate buffer (pH 5 or pH 7.4) starting from 1 mg/mL to 0.5 μg/mL and 50 μL was added to the plate containing the dried Nile red fluorophore (final concentration 0.2 μM). For the second experiment, solution of peptide dendrimers at 1 mg/mL in Milli-Q water were diluted to 0.1 mg/mL in 100 μL PB at pH ranging from 7.4 to 4 and added to dried Nile red. The plates were incubated for 2 h before measurement of fluorescence at λex=540 nm and λem=615 nm on a Tecan Infinite M1000 Pro plate reader. CMC values can be determined at the inflection point of the curves.

[2] = percentage of fluorescent cells, 20K events, N/P 5

Compound	FI (Fold Increase in transfection efficiency in comparison to L2000) NIH 3T3 (NIH 3T3)	Transfection efficiency (%) NIH 3T3 (NIH 3T3; [2]) [%]	FI (Fold Increase in transfection efficiency in comparison to L2000) DU 145 (DU 145)	Transfection efficiency (%) DU 145 (DU 145; [2]) [%]	CMC ([1]; assay validation) [mg/mL]	CMC ([1]; converted from mg/mL) [mM]
(KL)8(KKL)4(KKL)2KK(C22) [KL1,2,3-C22]	6	16.2 ± 4	4	30.6 ± 4		
CCCCCCCCCCCCOP(=O)([O-])OCC[N+](C)(C)C [dodecylphosphocholine, reference compound]					0.3125	0.9
